As usually defined, the EC50 is the midpoint of the concentration-response curve. What is called IC50 is the concentration that inhibits the measured activity by half. Higher therefore signals weaker potency in that assay.

The subject of this test is CEM cells HIV-1 protection, formazan growth assay. Description: NCI AIDS Antiviral Assay. The settings on record: for IC50: measured here: growth of uninfected CEM cells. Here is the method: The ability of compounds to protect human CEM cells from HIV-1 infection is measured as a screen for new compounds capable of inhibiting the HIV virus. Five concentrations of drug were tested on uninfected and infected cells and cell growth was measured using a soluble formazan assay. […] Compounds that provided at least 50% protection were retested. Compounds that provided at least 50% protection on retest were listed as moderately active. Compounds that reproducibly provided 100% protection were listed as confirmed active. […] Note that the inability to provide protection could be due to toxicity.

“And” between values parts separate entries of the source, which are not always exact repeats. Equal values may be shown once. The source made the active and inactive calls.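 Rule for the calls: active = compounds giving half or more protection of infected cells from virus-caused growth loss, again on retest; inactive = the rest.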 Bounds are passed on as bounds.

On to `CN(C)Cc1cc(C(=O)/C=C/c2ccc(/C=C/C(=O)c3cc(CN(C)C)c(O)c(CN(C)C)c3)cc2)cc(CN(C)C)c1O`, for which the EC50 is more than 200 µM and the IC50 was found to be 10 µM.
`O=S(=O)(/C=C/C(=C/c1ccccc1)S(=O)(=O)c1ccccc1)c1ccccc1`: the result was inactive.
Still for that read-out and setting: the value for `CCN1CCC(O)(c2ccc(Cl)cc2)C(C(=O)c2ccc(Cl)cc2)C1` (configuration not stated) was “inactive”.
As for `O=C1/C(=C/c2ccc([N+](=O)[O-])cc2)CCc2ccccc21`, the EC50 was more than 7.24 µM and the IC50 is more than 7.24 µM.
For the compound `CCCOC(=O)Nc1ccc2c(c1)c1c3[nH]c(=O)c4cccn4c3ccc1n2CC`, the EC50 is more than 200 µM and the IC50 was more than 200 µM.
As for `O=C(Nc1cc2c(=O)oc3ccccc3c2oc1=O)c1cccnc1`, the EC50 is more than 100 µM and the IC50 is more than 100 µM.
On to `S=c1cn[nH]c2ccc(S)cc12`, for which the EC50 is more than 182 µM and the half-maximal inhibitory concentration (IC50) came out at 102 µM.
Consider `CC(C)OCC(O)COc1cc(=O)oc2ccccc12` (configuration not stated), for which the EC50 was more than 200 µM and the IC50 was more than 200 µM.
Take `Cc1cn(C2OC(CO)(C(F)(F)F)C(O)C2O)c(=O)[nH]c1=O` (configuration not stated): the EC50 was more than 200 µM and the IC50 is more than 200 µM.
With `Cc1ccc(S(=O)(=O)N/N=C/c2oc(-c3ccccc3Cl)c(-c3ccccc3Cl)c2[N+](=O)[O-])cc1`, the EC50 was more than 7.08 µM and the IC50 was more than 7.08 µM.
`CCCCCCCCCCCCC(Br)C(=O)OCC1OC(n2cc(C)c(=O)[nH]c2=O)CC1O` (configuration not stated): the EC50 was more than 200 µM.
With `NC(=S)N/N=C/c1cc(CN2CCOCC2)c(N)cn1`, the EC50 is more than 200 µM and the IC50 worked out at 10.5 µM.
On to `Nc1ncnc2c1ncn2C1OC(CSC(F)F)C(O)C1O` (configuration not stated), for which the EC50 is more than 759 µM and the IC50 stood at 219 µM.
In the case of `CCCC(NCCCCCCNC(CCC)C(=O)O)C(=O)O` (configuration not stated), the EC50 was more than 525 µM and the half-inhibitory concentration (IC50) is more than 525 µM.
Take `Sc1nc2ccccc2s1.Sc1nc2ccccc2s1.Sc1nc2ccccc2s1.Sc1nc2ccccc2s1.[Cl][Rh][Cl]`: the EC50 was more than 151 µM and the IC50 came out at 2.95 µM.
As to `COC(=O)c1ccccc1NC(c1ccccn1)c1ccc2cccnc2c1O` (configuration not stated), the EC50 was more than 25.7 µM and the IC50 worked out at 1.32 µM.
With `CCCCN(CCCC)CC(C(C)=O)C(c1ccccc1)c1c(O)c2ccccc2oc1=O` (configuration not stated), the EC50 is more than 41.7 µM and the IC50 was more than 41.7 µM.
With `CC(C)N(CCCNc1c2ccccc2nc2cccc([N+](=O)[O-])c12)C(C)C`, the EC50 was more than 200 µM and the 50% inhibitory concentration (IC50) was 0.0631 µM.
With `CC(=O)Oc1cc(OC(C)=O)c2c(C)cc(=O)oc2c1`, the EC50 was more than 200 µM and the half-inhibitory concentration (IC50) was 148 µM.
As for `COc1cccc2c1C(=O)c1c(O)c3c(c(O)c1C2=O)C[C@@](O)(/C(C)=N\O)C[C@@H]3OC1CC(N)C(O)C(C)O1` (some centres not stated), the EC50 is more than 0.2 µM and the IC50 turned out to be 0.0646 µM.
Turning to `NC(=Nc1ccc(O)cc1)S(=O)O`, the EC50 was more than 200 µM and the IC50 is 120 µM.
The like results for `Cc1ccc(N=NC2=C3Sc4ccccc4N=C2N(c2ccc(Br)cc2)C(=S)N3c2ccc(Cl)cc2)cc1` were, in that order, more than 45.7 µM and more than 45.7 µM.
Turning to `Oc1c2c(c(O)c3ccccc13)C1(N=N2)c2ccccc2Oc2ccccc21`, the result was inactive.
For `NNC1=N/C(=C\c2ccco2)C(=O)N1`, the EC50 was more than 200 µM and the IC50 is 162 µM.
Regarding `COc1cc2ccc3c4cc(OC)c(OC)cc4c[n+](C)c3c2cc1O`, the result was inactive.
With `CC1SC(N)=NN=C1c1c(O)c2ccccc2oc1=O` (configuration not stated), the EC50 was more than 200 µM and the IC50 worked out at 148 µM.
`C/C(N=NC(=S)N1CC2CCC(CC2)C1)=C1\C=CC=CN1O`: the EC50 was more than 158 µM and the 50% inhibitory concentration (IC50) was found to be 1.86 µM.
As for `CCCCCC1C(=O)N2C=C(c3ccccc3)c3ccccc3N2C1=O` (configuration not stated), the outcome was inactive.
Consider `CS(=O)(=O)OCCNC[C@@H](O)[C@@H](O)CNCCOS(C)(=O)=O`, for which the EC50 is more than 692 µM and the IC50 is 1.38 µM.
For the compound `c1cnc(NC(Nc2cnccn2)C2CCCCC2)cn1`, the EC50 is more than 240 µM and the IC50 is more than 240 µM.
`Cc1cc(O)c(C(=O)CC2(O)C(=O)Nc3c(Cl)cc(Cl)cc32)c(=O)o1` (configuration not stated): the EC50 is more than 468 µM and the IC50 is more than 468 µM.
`Clc1ccc(CN2COc3c(cc(Cl)c4cccnc34)C2)cc1`: the EC50 was more than 64.6 µM and the half-inhibitory concentration (IC50) was found to be 1.26 µM.
For the compound `O=C(N1CCCC1)C1(c2cccc(Cl)c2)CCNCC1`, the EC50 was more than 200 µM and the IC50 was 129 µM.
For `Cc1cc(=O)[nH]c(NNC(C#N)c2ccc(N(C)C)cc2)n1` (configuration not stated), the EC50 is more than 63.1 µM and the IC50 is more than 63.1 µM.
Turning to `NC(CCc1ncc(-c2ccccc2)s1)C(=O)O` (configuration not stated), the result was inactive.
On to `CCCc1cc(=O)oc2c3c(c4c(c12)OC(C)(C)[C@@H](O)[C@@H]4O)O[C@@H](C)[C@H](C)[C@@H]3O`, for which the EC50 was more than 200 µM and the IC50 stood at 89.1 µM.
Consider `OCC1OC(n2cnc3c(Cl)nc(Nc4ccc(Cl)c(Cl)c4)nc32)CC1O` (configuration not stated), for which the EC50 is more than 200 µM and the IC50 worked out at 3.72 µM.
For the compound `CC(C)NC(=O)OCCN=C1c2ccccc2C(Br)C(Br)c2ccccc21` (configuration not stated), the EC50 is more than 200 µM and the half-inhibitory concentration (IC50) was 0.575 µM.
On to `COc1cc2c(c([N+](=O)[O-])c1)NC(=O)C(C)S2` (configuration not stated), for which the EC50 is more than 200 µM and the IC50 is 49 µM.
For the compound `O=C1/C(=C/c2ccccc2)NC(=S)N1CN1CCCCC1`, the EC50 is more than 200 µM and the IC50 amounted to 33.9 µM.
As to `O=C(O)/C=C/c1ccc2c(c1)CC1(Cc3ccccc3C1)C2`, the EC50 is more than 200 µM and the IC50 turned out to be 49 µM.
Taken in the same sequence, the figures for `CCOC(=O)c1nc2ccccc2nc1NCc1cc(OC)c(OC)c(OC)c1` were more than 200 µM and 27.5 µM.
Turning to `C=CCC1C(=O)Nc2cccc3ncn(c23)C1=O` (configuration not stated), the EC50 is more than 200 µM and the IC50 is 186 µM.
Turning to `Cc1ccc(S(=O)(=O)c2ccc(N)cc2)cc1`, the outcome was inactive.
Take `Oc1ccc(Cn2c(-c3ccc(O)cc3)nc3ccccc32)cc1`: the EC50 was more than 794 µM and the IC50 is more than 794 µM.
`C[C@]12CCC(=O)C=C1CC[C@@H]1C2CC[C@]2(C)Nc3c(cnn3-c3ccccc3)CC12` (some centres not stated): the outcome was inactive.
For `O=c1[nH]c(=O)n2n1C1C=CC2CC1`, the EC50 was more than 200 µM and the IC50 is more than 200 µM.
As to `CC(=O)OCC1OC(SC2=N/C(=C\c3ccc(Br)s3)C(=O)N2c2ccccc2)C(OC(C)=O)C(OC(C)=O)C1OC(C)=O` (configuration not stated), the EC50 is more than 200 µM; the IC50 was 123 µM and 33.9 µM.
With `O=C(CCCc1ccccc1)NO`, the outcome was inactive.
Regarding `O=C1CC(c2ccsc2)n2cccc21` (configuration not stated), the EC50 was 186 µM and the IC50 is more than 200 µM.
Regarding `Nc1nc(Cl)cc(OCC2(O)CC(COC(=O)c3ccccc3)C2)n1` (configuration not stated), the EC50 was more than 200 µM and the IC50 is 60.3 µM.
In the case of `CS(=O)(=O)N1CC(CCl)c2ccc(SSc3ccc4c(c3)N(S(C)(=O)=O)CC4CCl)cc21` (configuration not stated), the result was inactive.
As to `Oc1ccc2c(c1)c1c(n2CCN2CCOCC2)-c2ccccc2CC1`, the EC50 was more than 200 µM and the IC50 came out at 30.2 µM.
The like results for `CCOC(=O)[C@@]12C(C)=CC(=O)O[C@]1(C)C[C@H]2C#N` were, in that order, more than 1000 µM and more than 1000 µM.

(Values after PubChem BioAssay AID179 (DTP/NCI, 2004).)
